“And” between values parts separate entries of the source, which are not always exact repeats. Equal values may be shown once.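 1) Cells in 96-well plates. 2) Compound, 48 h, 5 concentrations. 3) Linear interpolation between surrounding doses. 4) Unreached endpoint = highest concentration. GI50 = concentration required for 50% inhibition of growth. TGI marks complete inhibition of growth.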
Tests used:
Assay in all cases: NCI tumour cell line growth inhibition, 48 h
[1] = tested on: 786-0 renal
[2] = tested on: A498 renal
[3] = tested on: A549 NSCLC
[4] = tested on: ACHN renal
[5] = tested on: BT-549 breast
[6] = tested on: CAKI-1 renal
[7] = tested on: CCRF-CEM leukemia
[8] = tested on: COLO 205 colon
[9] = tested on: DLD-1 colon
[10] = tested on: DMS 114 small cell lung
[11] = tested on: DMS 273 small cell lung
[12] = tested on: DU-145 prostate
[13] = tested on: EKVX NSCLC
[14] = tested on: HCC-2998 colon
[15] = tested on: HCT-116 colon
[16] = tested on: HCT-15 colon
[17] = tested on: HL-60(TB) leukemia
[18] = tested on: HOP-18 NSCLC
[19] = tested on: HOP-62 NSCLC
[20] = tested on: HOP-92 NSCLC
[21] = tested on: HS 578T breast
[22] = tested on: HT29 colon
[23] = tested on: IGROV1 ovarian
[24] = tested on: K-562 leukemia
[25] = tested on: KM12 colon
[26] = tested on: KM20L2 colon
[27] = tested on: LOX IMVI melanoma
[28] = tested on: M14 melanoma
[29] = tested on: M19-MEL melanoma
[30] = tested on: MALME-3M melanoma
[31] = tested on: MCF7 breast
[32] = tested on: MDA-MB-231 breast
[33] = tested on: MDA-MB-435
[34] = tested on: MDA-N
[35] = tested on: MOLT-4 leukemia
[36] = tested on: NCI-H226 lung
[37] = tested on: NCI-H23 lung
[38] = tested on: NCI-H460 lung
[39] = tested on: NCI-H522 lung
[40] = tested on: NCI/ADR-RES ovarian
[41] = tested on: OVCAR-3 ovarian
[42] = tested on: OVCAR-4 ovarian
[43] = tested on: OVCAR-5 ovarian
[44] = tested on: OVCAR-8 ovarian
[45] = tested on: P388 leukemia
[46] = tested on: P388/ADR leukemia
[47] = tested on: PC-3 prostate
[48] = tested on: RPMI-8226 leukemia
[49] = tested on: RXF 393 renal
[50] = tested on: SF-268 CNS
[51] = tested on: SF-295 CNS
[52] = tested on: SF-539 CNS
[53] = tested on: SK-MEL-2 melanoma
[54] = tested on: SK-MEL-28 melanoma
[55] = tested on: SK-MEL-5 melanoma
[56] = tested on: SK-OV-3 ovarian
[57] = tested on: SN12C renal
[58] = tested on: SN12K1 renal
[59] = tested on: SNB-19 CNS
[60] = tested on: SNB-75 CNS
[61] = tested on: SNB-78 CNS
[62] = tested on: SR leukemia
[63] = tested on: SW-620 colon
[64] = tested on: T-47D breast
[65] = tested on: TK-10 renal
[66] = tested on: U251 CNS
[67] = tested on: UACC-257 melanoma
[68] = tested on: UACC-62 melanoma
[69] = tested on: UO-31 renal
[70] = tested on: XF 498 CNS

## CNC(=O)ON(C(C)=O)C(=O)NC
[1]
  GI50: > 93.8 µM
  TGI: 34.4 µM
[2]
  TGI: 211 µM
[3]
  TGI: 283 µM
[4]
  GI50: > 60.8 µM
  TGI: 47.7 µM
[5]
  GI50: > 45.2 µM
  TGI: 60.5 µM
[6]
  TGI: 146 µM
[7]
  GI50: 20.1 µM and 6.17 µM
  TGI: > 65.9 µM and 43 µM
[8]
  GI50: > 70 µM and 47.5 µM
  TGI: 142 µM
[9]
  TGI: 326 µM
[10]
  TGI: 126 µM
[11]
  TGI: 241 µM
[12]
  TGI: 135 µM
[13]
  GI50: 108 µM
  TGI: 241 µM
[14]
  TGI: 272 µM
[15]
  TGI: 136 µM
[16]
  GI50: > 76.4 µM
  TGI: 109 µM
[17]
  GI50: 14.2 µM and 8.38 µM
  TGI: 37.7 µM and 29.5 µM
[18]
  TGI: 242 µM
[19]
  TGI: 309 µM
[20]
  GI50: > 56 µM
  TGI: 64.4 µM
[21]
  GI50: 49.9 µM
  TGI: 216 µM
[22]
  GI50: 94.1 µM
  TGI: 242 µM
[23]
  TGI: 241 µM
[24]
  GI50: 51.8 µM and 26.6 µM
  TGI: 241 µM
[25]
  TGI: 166 µM
[26]
  TGI: 324 µM
[27]
  GI50: 65.2 µM
  TGI: 119 µM
[28]
  GI50: > 83.2 µM
  TGI: 41 µM
[29]
  TGI: 401 µM
[30]
  GI50: > 78.6 µM
  TGI: 129 µM
[31]
  TGI: 154 µM
[32]
  GI50: 28.8 µM
  TGI: 78.4 µM
[33]
  TGI: 50.2 µM
[34]
  GI50: > 85.8 µM
  TGI: 73.6 µM
[35]
  GI50: 35.7 µM and 19.1 µM
  TGI: > 91.5 µM and 92 µM
[36]
  TGI: 230 µM
[37]
  TGI: 156 µM
[38]
  TGI: 220 µM
[39]
  TGI: 73.5 µM
[40]
  TGI: 266 µM
[41]
  GI50: > 81.9 µM
  TGI: 140 µM
[42]
  TGI: 142 µM
[43]
  TGI: 276 µM
[44]
  TGI: 235 µM
[45]
  TGI: 62.4 µM
[46]
  TGI: 111 µM
[47]
  TGI: 60.7 µM
[48]
  GI50: 41.4 µM and 25.2 µM
  TGI: > 77.2 µM and 111 µM
[49]
  TGI: 107 µM
[50]
  TGI: 323 µM
[51]
  TGI: 267 µM
[52]
  TGI: 145 µM
[53]
  GI50: 38.3 µM
  TGI: 98.5 µM
[54]
  TGI: 159 µM
[55]
  TGI: 107 µM
[56]
  TGI: 276 µM
[57]
  TGI: 166 µM
[58]
  TGI: 192 µM
[59]
  TGI: 359 µM
[60]
  TGI: 182 µM
[61]
  TGI: 384 µM
[62]
  GI50: 7.31 µM
  TGI: > 72.3 µM
[63]
  GI50: > 94 µM
  TGI: 224 µM
[64]
  TGI: 33.5 µM
[65]
  TGI: 70.6 µM
[66]
  GI50: 93 µM
  TGI: 222 µM
[67]
  TGI: 159 µM
[68]
  GI50: > 88.2 µM
  TGI: 149 µM
[69]
  TGI: 114 µM
[70]
  TGI: 131 µM

From PubChem BioAssay (NCI)
